The values that follow come from ChEMBL document CHEMBL4325823 (Medchemcomm, 2018).

One test relates to Bacteroides sp. Description: Antibacterial activity against Bacteroides sp. In kind it is functional.
A short description of test [1]: Inhibition of Enterobacteriaceae PBP2 by Bocillin FL-based fluorescence assay.
Test [2] has as its system Enterobacteriaceae. Nature of the test: Inhibition of ESBL in Enterobacteriaceae assessed as potentiation of piperacillin-induced antibacterial activity by measuring piperacillin MIC at 2 ug/ml by agar dilution method.
Test [3] concerns Enterobacteriaceae. Description: Inhibition of ESBL in Enterobacteriaceae assessed as potentiation of cefepime-induced antibacterial activity by measuring cefepime MIC at 2 ug/ml by agar dilution method.
Test [4] has as its system Enterobacteriaceae. Nature of the test: Inhibition of ESBL in Enterobacteriaceae assessed as potentiation of aztreonam-induced antibacterial activity by measuring aztreonam MIC at 2 ug/ml by agar dilution method.
Test [5] concerns Enterobacteriaceae. Description: Inhibition of KPC in Enterobacteriaceae assessed as potentiation of piperacillin-induced antibacterial activity by measuring piperacillin MIC at 2 ug/ml by agar dilution method. (In agar dilution the substance is mixed into plates at graded concentrations.)
Test [6] has as its system Enterobacteriaceae. Nature of the test: Inhibition of KPC in Enterobacteriaceae assessed as potentiation of cefepime-induced antibacterial activity by measuring cefepime MIC at 2 ug/ml by agar dilution method.
The test system of test [7] is Enterobacteriaceae. Description: Inhibition of KPC in Enterobacteriaceae assessed as potentiation of aztreonam-induced antibacterial activity by measuring aztreonam MIC at 2 ug/ml by agar dilution method.
Test [8] concerns Enterobacteriaceae. Description: Inhibition of OXA in Enterobacteriaceae assessed as potentiation of piperacillin-induced antibacterial activity by measuring piperacillin MIC at 2 ug/ml by agar dilution method.
Test [9] relates to Enterobacteriaceae. Nature of the test: Inhibition of OXA in Enterobacteriaceae assessed as potentiation of cefepime-induced antibacterial activity by measuring cefepime MIC at 2 ug/ml by agar dilution method.
Test [10] concerns Enterobacteriaceae. Nature of the test: Inhibition of OXA in Enterobacteriaceae assessed as potentiation of aztreonam-induced antibacterial activity by measuring aztreonam MIC at 2 ug/ml by agar dilution method.
For test [11], the system named is Enterobacteriaceae. Description: Inhibition of KPC in Enterobacteriaceae assessed as potentiation of meropenem-induced antibacterial activity by measuring meropenem MIC at 2 ug/ml by agar dilution method (reference value: 8.43 ug/ml).
Test [12] relates to Enterobacteriaceae. Description: Inhibition of MBL in Enterobacteriaceae assessed as potentiation of aztreonam-induced antibacterial activity by measuring aztreonam MIC at 2 ug/ml by agar dilution method (reference value: 4.68 ug/ml).

As usually defined, the MIC90 is an inhibitory concentration at the 90% level, which refers to growth in some studies and to a panel of isolates in others. The term IC50 denotes the concentration that gives 50% inhibition. High values mean weaker potency, low ones greater potency.

≈ marks a conversion by molar mass, not a printed value.

As for `C[C@@H](O)[C@H]1C(=O)N2C(C(=O)O)=C(SCCNC=N)C[C@H]12` [IMIPENEM ANHYDROUS], in the test with Bacteroides sp., the MIC90 was ≤ 1 µg/mL.

In the case of `NCCONC(=O)[C@@H]1CC[C@@H]2CN1C(=O)N2OS(=O)(=O)O` [NACUBACTAM], in test [1], the IC50 worked out at 0.12 µg/mL (≈ 0.37 µM). The MIC with Enterobacteriaceae [2], in the test on Enterobacteriaceae [3], in the test with Enterobacteriaceae [4], in the test on Enterobacteriaceae [5], with Enterobacteriaceae [6] and in the test with Enterobacteriaceae [7] was < 1 µg/mL each time. Further, the MIC in the test with Enterobacteriaceae [8] was < 1 µg/mL; with Enterobacteriaceae [9], < 1 µg/mL; with Enterobacteriaceae [10], < 1 µg/mL; in the test on Enterobacteriaceae [11], < 1 µg/mL; with Enterobacteriaceae [12], 0.072 µg/mL.
